For orientation: chromatographic logP means lipophilicity estimated from chromatographic retention. In general, MIC refers to the lowest concentration that inhibits growth of the organism. The MBC is the smallest concentration meeting the test's criterion for killing.

SMILES strings stand for the structures. Where two headings read alike, the source gives them in different places.

A short description of data set [1]: Chromatographic hydrophobicity index (CHI) by UHPLC. The note with it: for CHI: LC/UV at pH 2.6, calculated from retention time with the calibration line; for chromatographic logP: back-calculated from CHI at pH 2.6: CHI LogP = 0.047 × CHI + 0.36 × HBC − 1.10. The class given is physicochemical. The protocol:
The chromatographic hydrophobicity index (CHI) values were determined using the retention times (tR) of the samples under study and of a mixture of standard compounds on a UHPLC NEXERA SERIES LC-40 with a Luna C18 (2) column of 150 × 4.6 mm, 5 μm (Phenomenex, Torrance, CA, USA). Stock solutions of the test compounds (10 mM) were prepared in dimethyl sulfoxide (DMSO, 99.9%; Carlo Erba) and diluted in acetonitrile/water (1:1) to obtain a final concentration of 500 μM. The mobile phase A was 1.0% (v/v) aqueous acetic acid solution (pH = 2.6), and the mobile phase B was acetonitrile. The following gradient programme was applied: 1–7 min 0–100% B, 7–17 min 100% B, 17–19 min 100–0% B, 1 mL/min flow; rt, injection volume 40 μL.
A calibration line was obtained using a mixture of the following compounds: benzimidazole, theophylline, paracetamol, caffeine, colchicine, carbamazepine, indole, propiophenone, butyrophenone, valerophenone, and heptanophenone (Table S1 and Figure S50, Supplementary Materials). The experimental CHI values of the compounds tested at pH 2.6 were then converted to the logarithm of octanol/water partition coefficient (CHI LogP) values using Equation (1). CHI LogP = 0.047 × CHI + 0.36 × HBC − 1.10 (1) where HBC is the hydrogen bond donor count.

In data set [2] the test system is S. aureus CECT 976. The data set is described as follows: MIC/MBC by broth microdilution, S. aureus CECT 976. The class given is cell-based. The conditions noted are these: Staphylococcus aureus. The method, then:
The minimum inhibitory concentration (MIC) and minimum bactericidal concentration (MBC) values of all QHSs were determined by the broth microdilution method, according to the approved M7-A7 (aerobes) standards of the Clinical and Laboratory Standards Institute (CLSI) guidelines. Overnight cell cultures of S. aureus, in the exponential phase of growth, were adjusted to an optical density (OD) of 0.132 ± 0.02 (λ = 600 nm). Then, a volume of 180 µL of the cell suspension was added to sterile, flat, clear-bottomed polystyrene (PS) 96-well microtiter plates (VWR—Radnor, PA, USA), already containing 20 µL of each QHS under study at concentrations ranging from 0.0625 to 64 µg/mL. In the end, the volume of each compound never exceeded 10% (v/v) of the well volume. Microtiter plates were then incubated for 24 h at 37 °C under agitation (150 rpm; INCU-Line IL 150R incubator). Absorbance measurements were performed at the beginning (t = 0 h) and end (t = 24 h) of the incubation period using a microtiter plate absorbance reader (BMG LABTECH FLUOstar Omega). Bacterial suspensions with DMSO and without QHSs were used as negative controls. […] All tests were performed with six replicates and a minimum of three independent repeats.
Plates were incubated at 37 °C for 24 h, and growth was visually inspected. […] All tests were performed in triplicate, and with a minimum of three independent repeats.
For orientation: Dilution methods test growth across graded concentrations, often in twofold steps.

The mark [3] stands for this setting: CECT976, S. aureus CECT 976, broth microdilution, 24 h, 37 °C, read-out: MIC.
Setting [4] is: CECT976, S. aureus CECT 976, broth microdilution, plated on PCA, read-out: MBC.

In the case of `CCCCCCCCCCCCCCCCCC[n+]1cccc2ccccc21.[Br-]` [Compound 5g, 1-Octadecylquinolin-1-ium bromide], in data set [1], the CHI is given as 112.9 and the chromatographic logP is 4.21. Also, the minimal inhibitory concentration (MIC) in data set [2] (setting [3]) is 16 µg/mL. For the same molecule, the MBC in data set [2] (setting [4]) turned out to be 16 µg/mL.
Take `CCCCCCCCCCCC[N+](CC)(CC)CC.[Br-]` [Compound 7d, N,N,N-Triethyldodecan-1-aminium bromide]: the minimum inhibitory concentration (MIC) in data set [2] (setting [3]) came out at 4 µg/mL. In data set [2] (setting [4]), the MBC turned out to be 16 µg/mL.
Take `CCCCCCCCCC[n+]1ccn(C)c1.[Br-]` [Compound 2c, 3-Decyl-1-methyl-1H-imidazol-3-ium bromide]: in data set [1], the CHI is given as 54.51 and the chromatographic logP is 1.46. Also, the minimal inhibitory concentration (MIC) in data set [2] (setting [3]) is 16 µg/mL. The minimal bactericidal concentration (MBC) in data set [2] (setting [4]) is above 64 µg/mL.
The like results for `CCCCCC[P+](c1ccccc1)(c1ccccc1)c1ccccc1` [Compound 1a, Hexyltriphenylphosphonium bromide] were, in that order, 60.58, 1.75, 8 µg/mL and above 64 µg/mL.
For `CCCCCCCCCCCCCCCC[n+]1ccn(C)c1.[Br-]` [Compound 2f, 3-Hexadecyl-1-methyl-1H-imidazol-3-ium bromide] the same measures were 95.91, 3.41, 4 µg/mL and 8 µg/mL.
Regarding `CCCCCC[n+]1ccccc1.[Br-]` [Compound 6a, 1-Hexylpyridin-1-ium bromide], in data set [1], the CHI is listed as 27.07 and the chromatographic logP is 0.172. Moreover, the MIC in data set [2] (setting [3]) is above 64 µg/mL. Besides, the MBC in data set [2] (setting [4]) was above 64 µg/mL.
For the molecule `CCCCCCCCCCCCCCCC[n+]1ccccc1.[Br-]` [Compound 6f, 1-Hexadecylpyridin-1-ium bromide], in data set [1], the CHI was 94.47 and the chromatographic logP is 3.34. In data set [2] (CECT976), the MBC was found to be 8 µg/mL.
In the case of `CCCCCCCCCCCC[n+]1cccc2ccccc21.[Br-]` [Compound 5d, 1-Dodecylquinolin-1-ium bromide], in data set [1], the CHI is given as 74.21 and the chromatographic logP is 2.39. In addition, the MIC in data set [2] (setting [3]) came out at 4 µg/mL. Besides, the MBC in data set [2] (setting [4]) is 16 µg/mL.
The like results for `CCCCCCCCCCCCCCCCCC[n+]1ccn(C)c1.[Br-]` [Compound 2g, 1-Methyl-3-octadecyl-1H-imidazol-3-ium bromide] were, in that order, 109.2, 4.03, 8 µg/mL and 16 µg/mL.
For `CCCCCC[n+]1cccc2ccccc21.[Br-]` [Compound 5a, 1-Hexylquinolin-1-ium bromide] the same measures were 36.98, 0.638, above 64 µg/mL and above 64 µg/mL.
For `CCCCCCCC[n+]1cccc2ccccc21.[Br-]` [Compound 5b, 1-Octylquinolin-1-ium bromide], in data set [1], the CHI is reported as 49.24 and the chromatographic logP was 1.21. In addition, the minimum inhibitory concentration (MIC) in data set [2] (setting [3]) is 16 µg/mL. Further, in data set [2] (setting [4]), the minimal bactericidal concentration (MBC) is above 64 µg/mL.
As for `CCCCCCCCCC[n+]1ccc(C)cc1.[Br-]` [Compound 4c, 1-Decyl-4-methylpyridin-1-ium bromide], in data set [1], the CHI is listed as 55.99 and the chromatographic logP was 1.53. Also, in data set [2] (setting [3]), the MIC worked out at 32 µg/mL. Further, the MBC in data set [2] (setting [4]) is above 64 µg/mL.
On to `CCCCCCCCCCCCCCCC[P+](c1ccccc1)(c1ccccc1)c1ccccc1` [Compound 1f, Hexadecyltriphenylphosphonium bromide], for which, in data set [1], the CHI is listed as 115.5 and the chromatographic logP is 4.33. Also, in data set [2] (setting [3]), the MIC amounted to 2 µg/mL. In data set [2] (setting [4]), the MBC was 16 µg/mL.
For `CCCCCCCCCCCCCCCCCC[P+](c1ccccc1)(c1ccccc1)c1ccccc1` [Compound 1g, Octadecyltriphenylphosphonium bromide] the same measures were 128.2, 4.93, 4 µg/mL and 64 µg/mL.
As for `CCCCCCCC[N+](CC)(CC)CC.[Br-]` [Compound 7b, N,N,N-Triethyloctan-1-aminium bromide], in data set [2] (setting [3]), the minimum inhibitory concentration (MIC) was above 64 µg/mL. The MBC in data set [2] (setting [4]) is above 64 µg/mL.
With `CCCCCCCCCCCCCCCCCC[n+]1ccc(C)cc1.[Br-]` [Compound 4g, 4-Methyl-1-octadecylpyridin-1-ium bromide], in data set [1], the CHI is listed as 109.2 and the chromatographic logP is 4.03. In data set [2] (setting [3]), the MIC came to 8 µg/mL. Besides, the minimal bactericidal concentration (MBC) in data set [2] (setting [4]) worked out at 16 µg/mL.
In the case of `CCCCCCCCCCCCCCCC[N+](CC)(CC)CC.[Br-]` [Compound 7f, N,N,N-Triethylhexadecan-1-aminium bromide], the minimal inhibitory concentration (MIC) in data set [2] (setting [3]) stood at 64 µg/mL. Moreover, the MBC in data set [2] (setting [4]) worked out at 64 µg/mL.
With `CCCCCC[n+]1ccc(C)cc1.[Br-]` [Compound 4a, 1-Hexyl-4-methylpyridin-1-ium bromide], in data set [1], the CHI was 31.08 and the chromatographic logP was 0.361. In data set [2] (setting [3]), the MIC was above 64 µg/mL. Besides, the minimum bactericidal concentration (MBC) in data set [2] (setting [4]) was above 64 µg/mL.
Consider `CCCCCCCCCC[n+]1cccc2ccccc21.[Br-]` [Compound 5c, 1-Decylquinolin-1-ium bromide], for which, in data set [1], the CHI is on record as 61.45 and the chromatographic logP is 1.79. Also, the MIC in data set [2] (setting [3]) worked out at 16 µg/mL. The MBC in data set [2] (setting [4]) was determined as 32 µg/mL.
In the case of `CCCCCCCCCCCCCCCCCC[N+](CC)(CC)CC.[Br-]` [Compound 7g, N,N,N-Triethyloctadecan-1-aminium bromide], the minimal inhibitory concentration (MIC) in data set [2] (setting [3]) was 16 µg/mL. For the same molecule, the MBC in data set [2] (setting [4]) stood at 16 µg/mL.
On to `CCCCCCCC[n+]1ccccc1.[Br-]` [Compound 6b, 1-Octylpyridin-1-ium bromide], for which, in data set [1], the CHI is given as 40.78 and the chromatographic logP is 0.817. Also, the MIC in data set [2] (setting [3]) was above 64 µg/mL. Further, in data set [2] (setting [4]), the MBC was above 64 µg/mL.
`CCCCCC[n+]1ccn(C)c1.[Br-]` [Compound 2a, 3-Hexyl-1-methyl-1H-imidazol-3-ium bromide]: in data set [1], the CHI was 29.35 and the chromatographic logP is 0.279. The MBC in data set [2] (CECT976) was above 64 µg/mL. Besides, the MIC in data set [2] (CECT976, 24 h) is above 64 µg/mL.
Turning to `CCCCCCCCCC[n+]1ccc2ccccc2c1.[Br-]` [Compound 3c, 2-Decylisoquinolin-2-ium bromide], in data set [1], the CHI is reported as 61.62 and the chromatographic logP was 1.8. Moreover, in data set [2] (setting [3]), the MIC amounted to 16 µg/mL. Also, the minimum bactericidal concentration (MBC) in data set [2] (setting [4]) stood at 64 µg/mL.
For the molecule `CCCCCCCCCCCC[n+]1ccc(C)cc1.[Br-]` [Compound 4d, 1-Dodecyl-4-methylpyridin-1-ium bromide], in data set [1], the CHI is on record as 68.96 and the chromatographic logP is 2.14. Also, in data set [2] (setting [3]), the MIC was determined as 2 µg/mL. For the same molecule, in data set [2] (setting [4]), the minimum bactericidal concentration (MBC) was determined as 16 µg/mL.
The like results for `CCCCCCCCCCCCCCCC[n+]1ccc(C)cc1.[Br-]` [Compound 4f, 1-Hexadecyl-4-methylpyridin-1-ium bromide] were, in that order, 96.77, 3.45, 4 µg/mL and 8 µg/mL.
`CCCCCCCC[n+]1ccc2ccccc2c1.[Br-]` [Compound 3b, 2-Octylisoquinolin-2-ium bromide]: in data set [1], the CHI is reported as 50.02 and the chromatographic logP was 1.25. Also, in data set [2] (CECT976), the MBC is above 64 µg/mL. It took 64 µg/mL to inhibit growth in data set [2] (CECT976, 24 h) (MIC).
As to `CCCCCCCCCCCC[n+]1ccccc1.[Br-]` [Compound 6d, 1-Dodecylpyridin-1-ium bromide], in data set [1], the CHI is reported as 65.58. For the same molecule, the minimal inhibitory concentration (MIC) in data set [2] (setting [3]) came out at 2 µg/mL. The minimal bactericidal concentration (MBC) in data set [2] (setting [4]) worked out at 8 µg/mL.
On to `CCCCCCCCCCCC[n+]1ccn(C)c1.[Br-]` [Compound 2d, 3-Dodecyl-1-methyl-1H-imidazol-3-ium bromide], for which, in data set [1], the CHI is 67.25. The MIC in data set [2] (setting [3]) worked out at 1 µg/mL. Besides, in data set [2] (setting [4]), the MBC worked out at 16 µg/mL.
As to `CCCCCC[N+](CC)(CC)CC.[Br-]` [Compound 7a, N,N,N-Triethylhexan-1-aminium bromide], in data set [2] (setting [3]), the MIC was above 64 µg/mL. For the same molecule, in data set [2] (setting [4]), the MBC was above 64 µg/mL.
With `CCCCCCCCCC[N+](CC)(CC)CC.[Br-]` [Compound 7c, N,N,N-Triethyldecan-1-aminium bromide], the MIC in data set [2] (setting [3]) came to 64 µg/mL. The MBC in data set [2] (setting [4]) was above 64 µg/mL.
